Results on two substances are retold here after US11833254B2, “Discoidal nano universal platform for efficient delivery of PNAs” (University of Connecticut, priority 2020, dated 2023).

The data set can be described thus: Negative-stain transmission electron microscopy (TEM) of lipid/PNA complexes. It counts as physicochemical. The procedure: Transmission electron microscopy (TEM): Negatively-stained transmission electron microscopic (TEM) images were obtained using FEI Tecnai T12. The samples were prepared by spreading 5 μL 0.001 wt. % solution on a 400 mesh Formvar/carbon film copper grid (Electron Microscopy Sciences, PA, USA) and negative staining was applied with 10 mg/mL of Uranyl acetate (SPI Supplies, PA, USA). The grids were then dried at 25° C. The accelerating voltage of the TEM was set at 80 kV.

{ooo} = Boc-miniPEG-3 linker between TAMRA and the PNA; {TAMRA} = TAMRA dye conjugated to the PNA N-terminus; {Lys} = C-terminal lysine residue of the PNA

As for “5′ TAMRA-ooo-ACCCCTATCACGATTAGCATTAA-Lys 3′ (all peptide nucleic acid (PNA), 5' {TAMRA}-{ooo}, 3' {Lys}) [PNA-155]”, the “morphology (TEM)” value is given as “uniform discoidal morphology”.

For the substance “5′ TAMRA-ooo-TCAGCCGCTGTCACACGCACAG-Lys-3′ (all peptide nucleic acid (PNA), 5' {TAMRA}-{ooo}, 3' {Lys}) [PNA-210]”, the “morphology (TEM)” value was “uniform discoidal morphology”.
